US9561228B2 (Celgene Avilomics Research, Inc., priority 2013, dated 2017)

What was measured:
[1] = system: ERK1/2 phosphorylation of p90RSK in HCT116 cells; test: Detection of total and phospho-RSK by MSD ELISA (HCT116); assay type: cell-based; conditions: Homo sapiens, HCT-116, read-out: ERK1/ERK2 PRSK HCT116 EC50
Procedure: Detection of Total and Phospho-RSK by MSD ELISA (HCT116)
(§1) The protocol below describes an assay to measure the kinase activity of ERK1/2 to phosphorylate a substrate, p90RSK, in the presence or absence of a test compound.
HCT116 cells were grown in RPMI/10% FBS. Prior to the assay, 50,000 cells per well were plated in a 96 well flat bottom plate. Cells were cultured overnight in an incubator at 37° C.
Compound stocks were 10 mM in DMSO. A 1000× dilution was made in DMSO. 1 uL of the DMSO solution was transferred to 1 ml RPMI/10% FBS in a deep well plate. Media in the cell plate was discarded, and 100 uL of the compound-containing media was added. The preparation was incubated at 37° C. for 2 hrs.
Preparation of cell lysates are described below.
pRSK or total RSK MSD Assay
(§2) MSD plates: Blank MSD plates were coated with 30 uL capture antibody (BD 610226) at a final concentration of 1 ug/mL in PBS. Both pRSK and total RSK MSD assays used the same capture antibody at the same concentration. Antibody stock concentration was 250 ug/mL. Once antibody solution was added to MSD plate, the sides were tapped to be certain it was coated completely (visual inspection). It was then covered and placed at 4° C. overnight on a level surface.
Block MSD Plate: The coating antibody was removed and the plate was washed on a plate washer in MSD wash buffer. The last bit of wash solution was tapped out and 150 uL/well 3% BSA (MSD Blocker A) in MSD wash buffer was added. The preparation was placed on a shaker at room temperature for at least an hour.
Add samples: Media was removed from compound-treated cells and replaced with 55 uL/well MSD cell lysis buffer containing protease and phosphotase I & II inhibitors. The preparations was incubate on a shaker in a cold room for 30-45 min. The blocked MSD plate was washed on a plate washer, and the last bit of wash solution was tapped out. Next was added 50 uL (of the 55 uL) cell lysate in a well-well transfer. The preparation was covered and incubated on shaker at room temp for 2 hours. The lysate was then removed and washed on plate washer 3 times. The last bit of wash buffer was then tapped out and replaced with 25 uL/well detection antibody (described below).
For pRSK detection, a pRSK antibody stock of 21 ug/mL was prepared as follows: 1 ug/mL pRSK Ser380 antibody (Cell Signaling Technology, Cat. #9335)+1:750 anti-rabbit SulfoTag (from MSD, R32AB-1) in 1% BSA in MSD wash buffer.
(§3) For total RSK detection, a total RSK antibody stock of 200 ug/mL was prepared as follows: 1 ug/mL total RSK (Santa Cruz sc-231G) antibody+1:750 anti-goat SulfoTag (from MSD, R32AG-1) in 1% BSA in MSD wash buffer.
The plate was incubated for 1 hr at room temperature on a shaker, followed by three washes. The last bit of wash buffer was tapped out. Next, 150 uL/well 1×MSD Read buffer was added and the plate was analyzed by the MSD reader.

[2] = system: ERK1/2 phosphorylation of p90RSK in A375 cells; test: Detection of total and phosphor-RSK by MSD ELISA (A375); assay type: cell-based; conditions: Homo sapiens, A-375, read-out: ERK1/ERK2 PRSK A375 EC50
Procedure: Detection of Total and Phosphor-RSK by MSD ELISA (A375)
as §1
A375 cells were grown in DMEM/10% FBS. Twenty four hours prior to the assay, 50,000 cells per well were plated in a 96 well flat bottom plate. Once cells attached to the plate, the medium was replaced with 100 ul of DMEM/0.1% FBS. Cells were cultured overnight in an incubator at 37° C.
Compound stock solutions of 10 mM in DMSO were prepared. 1000× dilutions were then prepared in DMSO. 1 uL of DMSO solution was then transferred to 1 ml DMEM/0.1% FBS in a deep well plate. Cell plate media was discarded, followed by addition of 100 uL of the compound-containing media. The preparation was incubated at 37° C. for 2 hrs.
Cell lysates were prepared as described below.
pRSK or Total RSK MSD Assay
as §2, with “added to the MSD plate,” for “added to MSD plate,”
Block MSD Plate: The coating antibody was removed and the plate was washed on a plate washer in MSD wash buffer. The last bit of wash solution was tapped out and 150 uL/well of 3% BSA in MSD wash buffer was added in. The preparation was placed on a shaker at room temperature for at least an hour.
Add samples: Media was removed from compound-treated cells and replaced with 55 uL/well MSD cell lysis buffer containing protease and phosphotase I & II inhibitors. The preparation was incubated on a shaker in a cold room for 30-45 min. The blocked MSD plate was washed a on plate washer, tapping out the last bit of wash solution, followed by addition of 50 uL (of the 55 ul) cell lysate in a well-well transfer. The preparation was covered and incubated on a shaker at room temp for 2 hours. The lysate was removed, washed on a plate washer 3 times, and the last bit of wash buffer was tapped out and replace with 25 uL/well detection antibody (described below).
For pRSK detection, a pRSK antibody stock of 21 ug/mL was prepared as follows: 1 ug/mL pRSK Ser380 antibody (Cell Signaling Technology, Cat. #9335)+1:750 anti-rabbit SulfoTag (Mesoscale Discovery, Cat. # R32AB-1) in 1% BSA in MSD wash buffer.
as §3
The plate was incubated for 1 hr at room temperature on a shaker, followed by three washings. The last bit of wash buffer was tapped out. 150 uL/well 1×MSD Read buffer was added and the plate was then analyzed.

[3] = system: ERK1/2 phosphorylation of p90RSK in HT29 cells; test: pRSK MSD Assay in HT29 cells; assay type: cell-based; conditions: Homo sapiens, HT-29, read-out: ERK1/ERK2 PRSK MSD HT29 EC50
Outline: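 Phospho-RSK level, read by electrochemiluminescence on RSK-antibody-coated MSD plates with a phospho-RSK/Sulfo-tag detection pair, reports cellular ERK1/2 activity. HT29 cells, kept overnight in 0.1% FBS medium, were exposed to compound for 120 min at 37° C before lysis.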

MEK1 activated ERK1 = target: T1, MEK1 activated ERK1 (Homo sapiens, UniProt P27361); test: Omnia continuous-read kinase assay for potency against MEK1 activated ERK1; assay type: biochemical; conditions: ATP at KM, WT
T1 construct: purchased Millipore (Billerica, Mass.) 14-439-K
Outline: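 Apparent IC50 came from initial reaction slopes (RFU vs time) plotted against log inhibitor with a variable-slope fit. Reactions were started with ERK1 (4 nM final) added to 50 μM ATP, roughly at its appKM, and 10 μM Sox-conjugated ST17 peptide in 20 mM Tris pH 7.5, 5 mM MgCl2. Fluorescence was monitored every 71 seconds.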

T1 sequence (P27361 whole entry): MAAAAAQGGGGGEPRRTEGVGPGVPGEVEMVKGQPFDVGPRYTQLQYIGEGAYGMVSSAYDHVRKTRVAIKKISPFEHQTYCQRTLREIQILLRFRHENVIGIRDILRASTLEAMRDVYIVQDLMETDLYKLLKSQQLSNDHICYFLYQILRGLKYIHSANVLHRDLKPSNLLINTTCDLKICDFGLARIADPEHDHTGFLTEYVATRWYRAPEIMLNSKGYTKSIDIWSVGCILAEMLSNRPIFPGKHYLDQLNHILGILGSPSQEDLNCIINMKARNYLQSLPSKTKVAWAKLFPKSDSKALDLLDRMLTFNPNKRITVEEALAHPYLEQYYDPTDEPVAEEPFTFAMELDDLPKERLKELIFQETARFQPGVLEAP

| Compound | EC50 [1] | EC50 [2] | EC50 [3] | IC50 (MEK1 activated ERK1) |
| --- | --- | --- | --- | --- |
| C=CC(=O)Nc1cc(C)ccc1Nc1nc(N[C@H]2CCCN(S(=O)(=O)C=C)C2)ncc1C(F)(F)F [Compound I-277, (S)—N-(5-Methyl-2-((5-(trifluoromethyl)-2-((1-(vinylsulfonyl)piperidin-3-yl)amino)pyrimidin-4-yl)amino)phenyl)acrylamide] | > 1000 nM | > 1000 nM | > 1000 nM | – |
| C=CC(=O)Nc1cc(C)ccc1Nc1nc(N[C@@H]2CCCN(S(=O)(=O)C=C)C2)ncc1C(F)(F)F [Compound I-278, (R)—N-(5-Methyl-2-((5-(trifluoromethyl)-2-((1-(vinylsulfonyl)piperidin-3-yl)amino)pyrimidin-4-yl)amino)phenyl)acrylamide] | > 1000 nM | > 1000 nM | > 1000 nM | – |
| C=CC(=O)Nc1cc(C)ccc1Nc1nc(N[C@@H]2CCN(S(=O)(=O)C=C)C2)ncc1C(F)(F)F [Compound I-280, (R)—N-(5-Methyl-2-((5-(trifluoromethyl)-2-((1-(vinylsulfonyl)pyrrolidin-3-yl)amino)pyrimidin-4-yl)amino)phenyl)acrylamide] | > 1000 nM | > 1000 nM | – | – |
| C=CC(=O)Nc1cc(Cl)ccc1Nc1nc(Nc2cc(OC)ncc2C)ncc1C(F)(F)F [Compound I-289, N-(5-Chloro-2-((2-((2-methoxy-5-methylpyridin-4-yl)amino)-5-(trifluoromethyl)pyrimidin-4-yl)amino)phenyl)acrylamide] | 101 to 500 nM | < 100 nM | < 100 nM | – |
| C=CC(=O)Nc1ccccc1Nc1nc(Nc2cc(OC)nc(N3CCN(S(C)(=O)=O)CC3)c2)ncc1C(F)(F)F [Compound I-290, N-(2-((2-((2-Methoxy-6-(4-(methylsulfonyl)piperazin-1-yl)pyridin-4-yl)amino)-5-(trifluoromethyl)pyrimidin-4-yl)amino)phenyl)acrylamide] | 501 to 999 nM | > 1000 nM | > 1000 nM | – |
| C=CC(=O)Nc1cc(OC)ccc1Nc1nc(Nc2cc(OC)nc(N3CCN(C(C)=O)CC3)c2)ncc1Cl [Compound I-297, N-(2-((2-((2-(4-acetylpiperazin-1-yl)-6-methoxypyridin-4-yl)amino)-5-chloropyrimidin-4-yl)amino)-5-methoxyphenyl)acrylamide] | < 100 nM | > 1000 nM | < 100 nM | – |
| C=CC(=O)Nc1ccccc1Nc1nc(Nc2ccnc(NC)c2)ncc1C(F)(F)F [Compound I-321, N-(2-((2-((2-(methylamino)pyridin-4-yl)amino)-5-(trifluoromethyl)pyrimidin-4-yl)amino)phenyl)acrylamide] | > 1000 nM | > 1000 nM | > 1000 nM | – |
| C=CC(=O)Nc1cc(C)ccc1Nc1nc(Nc2cc(OC)nc(N3CCC3)c2)ncc1C(F)(F)F [Compound I-329, N-(2-((2-((2-(azetidin-1-yl)-6-methoxypyridin-4-yl)amino)-5-(trifluoromethyl)pyrimidin-4-yl)amino)-5-methylphenyl)acrylamide] | 101 to 500 nM | > 1000 nM | 101 to 500 nM | – |
| C=CC(=O)Nc1ccccc1Nc1nc(Nc2c[nH]nc2C)ncc1C(F)(F)F [Compound I-330, N-(2-((2-((3-methyl-1H-pyrazol-4-yl)amino)-5-(trifluoromethyl)pyrimidin-4-yl)amino)phenyl)acrylamide] | > 1000 nM | 101 to 500 nM | – | – |
| C=CC(=O)Nc1cc(C)ccc1Nc1nc(Nc2cnnc(Cl)c2)ncc1C(F)(F)F [Compound I-331, N-(2-((2-((6-chloropyridazin-4-yl)amino)-5-(trifluoromethyl)pyrimidin-4-yl)amino)-5-methylphenyl)acrylamide] | > 1000 nM | 501 to 999 nM | – | – |
| C=CC(=O)Nc1cc(C)ccc1Nc1nc(Nc2cc(OC)nc(N3CCC(O)CC3)c2)ncc1C(F)(F)F [Compound I-332, N-(2-((2-((2-(4-hydroxypiperidin-1-yl)-6-methoxypyridin-4-yl)amino)-5-(trifluoromethyl)pyrimidin-4-yl)amino)-5-methylphenyl)acrylamide] | 101 to 500 nM | 101 to 500 nM | < 100 nM | – |
| C=CC(=O)Nc1cc(C)ccc1Nc1nc(Nc2cnnc(OC)c2)ncc1C(F)(F)F [Compound I-335, N-(2-((2-((6-methoxypyridazin-4-yl)amino)-5-(trifluoromethyl)pyrimidin-4-yl)amino)-5-methylphenyl)acrylamide] | 501 to 999 nM | 501 to 999 nM | 501 to 999 nM | – |
| CCC(=O)Nc1cc(C)ccc1Nc1nc(Nc2cc(OC)ncc2C)ncc1C(F)(F)F [Compound I-352, N-(2-((2-((2-methoxy-5-methylpyridin-4-yl)amino)-5-(trifluoromethyl)pyrimidin-4-yl)amino)-5-methylphenyl)propionamide] | > 1000 nM | > 1000 nM | – | – |
| C=CC(=O)Nc1cc(OC(C)(C)C(N)=O)ccc1Nc1nc(Nc2cc(OC)ncc2C)ncc1C(F)(F)F [Compound I-414, N-(5-((1-amino-2-methyl-1-oxopropan-2-yl)oxy)-2-((2-((2-methoxy-5-methylpyridin-4-yl)amino)-5-(trifluoromethyl)pyrimidin-4-yl)amino)phenyl)acrylamide] | – | < 100 nM | < 100 nM | < 100 nM |
